ChEMBL document CHEMBL2150938, “Pyrrolo[2,3-b]quinoxalines as inhibitors of firefly luciferase: their Cu-mediated synthesis and evaluation as false positives in a reporter gene assay” (Bioorg Med Chem Lett, 2012)

Key:
Lampyridae = experiment: inhibition of firefly luciferase at 30 uM after 15 mins by luminescence assay
[1] = target: 3',5'-cyclic-AMP phosphodiesterase 4B (Homo sapiens) (UniProt Q07343); experiment: Inhibition of PDE4B at 30 uM by luciferase reporter gene assay
Sequence of 3',5'-cyclic-AMP phosphodiesterase 4B (Homo sapiens) (Q07343 whole entry): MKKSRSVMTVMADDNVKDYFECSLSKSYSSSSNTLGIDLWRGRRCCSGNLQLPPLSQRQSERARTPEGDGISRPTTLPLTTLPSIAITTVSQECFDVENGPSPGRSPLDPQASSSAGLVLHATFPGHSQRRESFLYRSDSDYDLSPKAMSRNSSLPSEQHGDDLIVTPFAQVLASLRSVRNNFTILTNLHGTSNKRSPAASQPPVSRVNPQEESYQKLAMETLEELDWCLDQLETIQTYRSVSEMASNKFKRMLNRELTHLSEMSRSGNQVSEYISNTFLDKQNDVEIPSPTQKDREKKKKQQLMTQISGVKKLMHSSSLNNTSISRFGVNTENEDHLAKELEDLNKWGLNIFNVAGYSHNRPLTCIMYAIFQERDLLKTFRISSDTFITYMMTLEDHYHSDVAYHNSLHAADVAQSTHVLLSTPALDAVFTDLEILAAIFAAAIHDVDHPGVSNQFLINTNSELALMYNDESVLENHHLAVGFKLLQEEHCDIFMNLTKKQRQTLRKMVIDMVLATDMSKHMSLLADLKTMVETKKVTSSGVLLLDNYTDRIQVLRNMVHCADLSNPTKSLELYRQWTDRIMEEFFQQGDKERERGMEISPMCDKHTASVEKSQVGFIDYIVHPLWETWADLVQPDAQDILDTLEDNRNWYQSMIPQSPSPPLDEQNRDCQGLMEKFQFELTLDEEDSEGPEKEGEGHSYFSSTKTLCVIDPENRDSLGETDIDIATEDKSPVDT

| Structure (SMILES) | inhibition (Lampyridae) | inhibition [1] |
| --- | --- | --- |
| CS(=O)(=O)n1c(-c2ccccc2)cc2nc3ccccc3nc21 | 92.4% | 94.7% |
| c1ccc(-c2cc3[nH]c4ccccc4nc-3n2)cc1 | 98.4% | 98.3% |
| CC(C)(C)c1cc2nc3ccccc3nc2[nH]1 | 99.2% | 100% |
